Laboratory results from ChEMBL document CHEMBL4177563, “The medicinal chemistry of Chikungunya virus” (Bioorg Med Chem, 2017).

Key:
[1] = Cytotoxicity against African green monkey Vero cells assessed as reduction in cell viability measured on day 6 to 7 post infection by MTS dye-based microscopic analysis; details: chlorocebus sabaeus
Chikungunya virus [2] = test: Antiviral activity against Chikungunya virus infected in African green monkey Vero cells assessed as inhibition of virus-induced cytopathogenic effect measured on day 6 to 7 post infection by MTS dye-based microscopic analysis; assay type: functional, organism-based; details: 144 h
[3] = Selectivity index, ratio of CC50 for BHK cells to IC50 for Chikungunya virus LR2006 OPY1; assay type: toxicity; details: hamster, read-out: Ratio CC50/IC50
Chikungunya virus [4] = test: Antiviral activity against Chikungunya virus LR2006 OPY1 infected in BHK cells measured at 14 hrs post infection by luciferase reporter gene assay; assay type: functional, organism-based
[5] = Cytotoxicity against BHK cells assessed as reduction in cell viability after 48 hrs in presence of ATP by Celltiter-Glo luminescent assay; assay type: cell-based, Mesocricetus auratus; details: hamster
[6] = Cytotoxicity against African green monkey Vero cells assessed as reduction in cell viability after 18 hrs by […]; assay type: cell-based; details: chlorocebus sabaeus
[7] = Selectivity index, ratio of CC50 for African green monkey Vero cells to EC50 for Chikungunya virus 899; assay type: toxicity; details: read-out: Ratio CC50/EC50
Chikungunya virus [8] = test: Antiviral activity against Chikungunya virus 899 infected in African green monkey Vero cells by MTS assay; assay type: functional, organism-based; details: Chikungunya virus, 899, Vero
Chikungunya virus [9] = test: Antiviral activity against Chikungunya virus 899 infected in African green monkey Vero cells assessed as inhibition of virus-induced cytopathogenic effect measured on day 5 post infection by MTS/PMS based microscopic analysis; assay type: functional, organism-based; details: Chikungunya virus, 899, Vero, 120 h
Vero = test: Cytotoxicity against African green monkey Vero cells assessed as reduction in cell viability measured on day 5 post dose by MTS/PMS based microscopic analysis; details: chlorocebus sabaeus
[10] = Selectivity index, ratio of CC50 for African green monkey Vero cells to IC50 for Chikungunya virus MY/065/08/FN295485; assay type: toxicity; details: read-out: Ratio IC50
[11] = Binding affinity to Chikungunya virus […]
Chikungunya virus [12] = test: Antiviral activity against Chikungunya virus MY/065/08/FN295485 infected in African green monkey Vero cells assessed as reduction in virus yield after 48 hrs by titration assay; assay type: functional, organism-based; details: MY/065/08/FN295485, Vero
[13] = Selectivity index, ratio of CC50 for African green monkey Vero cells to IC50 for Chikungunya virus KC969208; assay type: toxicity; details: read-out: Ratio CC50/IC50
Chikungunya virus [14] = test: Antiviral activity against Chikungunya virus KC969208 infected in African green monkey Vero cells after 48 hrs by MTT dye-based assay; assay type: functional, organism-based
Chikungunya virus [15] = test: Antiviral activity against Chikungunya virus LR2006-OPY1 infected in BHK21 cells after 48 hrs by luciferase reporter gene assay; assay type: functional, organism-based; details: LR2006-OPY1, BHK-21, 48 h
Chikungunya virus [16] = test: Antiviral activity against Chikungunya virus LR2006-OPY1 infected in human Huh7.5 cells after 48 hrs by luciferase reporter gene assay; assay type: functional, organism-based; details: LR2006-OPY1, Huh7.5, 48 h
[17] = Cytotoxicity against human Huh7.5 cells in presence of ATP by Celltiter-Glo assay; assay type: cell-based
[18] = Selectivity index, ratio of CC50 for BHK21 cells to EC50 for Chikungunya virus; assay type: toxicity; details: hamster, BHK-21 cells; read-out: Ratio CC50/EC50
[19] = Cytotoxicity against BHK21 cells in presence of ATP by Celltiter-Glo assay; assay type: cell-based, Mesocricetus auratus; details: hamster, BHK-21 cells
[20] = Selectivity index, ratio of CC50 for human Huh7.5 cells to EC50 for Chikungunya virus; assay type: toxicity; details: read-out: Ratio CC50/EC50
Chikungunya virus [21] = test: Antiviral activity against Chikungunya virus infected in African green monkey Vero cells after 72 hrs by MTT dye-based assay; assay type: functional, organism-based

Structure (SMILES): C=C(C)[C@@]1(O)[C@@H]2OC3(c4ccccc4)O[C@H]1[C@@H](C)[C@]1(O3)C3=CC(=C(Cl)Cl)[C@H](OC(=O)c4ccccc4)[C@@]3(O)[C@H](OC(C)=O)[C@@]3(COC(C)=O)O[C@H]3[C@@H]21
- CC50 [1]: 35 µM
- EC50 (Chikungunya virus [2]): 1.5 µM

Structure (SMILES): CN1CCC(CN2c3ccccc3Sc3ccccc32)C1 (stereo not drawn) [METHDILAZINE]
- selectivity ratio [3]: 5.6
- IC50 (Chikungunya virus [4]): 11.3 µM
- CC50 at 48 h [5]: 63.8 µM

Structure (SMILES): C=C(C)[C@@]1(Oc2ccccc2)[C@@H]2OC3(c4ccccc4)O[C@H]1[C@@H](C)[C@]1(O3)C3=CC(=C(Cl)Cl)C[C@@]3(O)C[C@@]3(Cc4ccccc4)O[C@H]3[C@@H]21
- CC50 [1]: 93 µM
- EC50 (Chikungunya virus [2]): 2.6 µM

Structure (SMILES): CN(C)CCCN1c2ccccc2Sc2ccc(Cl)cc21 [CHLORPROMAZINE]
- selectivity ratio [3]: 4.5
- IC50 (Chikungunya virus [4]): 15.7 µM
- CC50 at 48 h [5]: 67.3 µM

Structure (SMILES): Cc1ccc(S(=O)(=O)Oc2ccc3c(CSc4nc5ccccc5c(=O)[nH]4)cc(=O)oc3c2)cc1
- CC50 at 18 h [6]: 117 µM
- selectivity ratio [7]: 11.5
- EC50 (Chikungunya virus [8]): 10.2 µM

Structure (SMILES): Cn1c2ccccc2c2c3c(c4c5ccccc5n(CCC#N)c4c21)CNC3=O [GO-6976]
- EC50 (Chikungunya virus [9]): > 6 µM
- CC50 (Vero): 6 µM

Structure (SMILES): O=c1cc(CSc2nc(O)c3ccccc3n2)c2ccc(O)cc2o1
- CC50 at 18 h [6]: > 284 µM
- selectivity ratio [7]: > 1.5
- EC50 (Chikungunya virus [8]): 192 µM

Structure (SMILES): CN1CCN(c2nc(C3=C(c4c[nH]c5ccccc45)C(=O)NC3=O)c3ccccc3n2)CC1 [SOTRASTAURIN]
- EC50 (Chikungunya virus [9]): > 66 µM
- CC50 (Vero): 66 µM

Structure (SMILES): Cc1ccc2nc(SCc3cc(=O)oc4cc(OS(=O)(=O)c5ccccc5[N+](=O)[O-])ccc34)[nH]c(=O)c2c1
- CC50 at 18 h [6]: 107 µM
- selectivity ratio [7]: 5.6
- EC50 (Chikungunya virus [8]): 19 µM

Structure (SMILES): CCN(CC)C(C)CN1c2ccccc2Sc2ccccc21 (stereo not drawn) [ETHOPROPAZINE]
- selectivity ratio [3]: 10.4
- IC50 (Chikungunya virus [4]): 16 µM
- CC50 at 48 h [5]: 167 µM

Structure (SMILES): O=C1CCN=C(SCc2cc(=O)oc3cc(OS(=O)(=O)c4ccccc4[N+](=O)[O-])ccc23)N1
- CC50 at 18 h [6]: 75.2 µM
- selectivity ratio [7]: 5.8
- EC50 (Chikungunya virus [8]): 13 µM

Structure (SMILES): C=C(C)[C@@]1(Oc2ccccc2)[C@@H]2OC3(c4ccccc4)O[C@H]1[C@@H](C)[C@]1(O3)C3=CC(=C(Cl)Cl)[C@H](c4ccccc4)[C@@]3(O)C[C@@]3(C)O[C@H]3[C@@H]21
- CC50 [1]: 23.1 µM
- EC50 (Chikungunya virus [2]): 3 µM

Structure (SMILES): Cc1ccc(COc2ccc3c(CSc4nc5ccccc5c(=O)[nH]4)cc(=O)oc3c2)cc1
- CC50 at 18 h [6]: 102 µM
- EC50 (Chikungunya virus [8]): > 2.19 µM

Structure (SMILES): O=C(O)[C@H]1O[C@@H](Oc2cc3oc(-c4ccccc4)cc(=O)c3c(O)c2O)[C@H](O)[C@@H](O)[C@@H]1O [BAICALIN]
- selectivity ratio [10]: 188
- Ki [11]: 0.064 µM
- IC50 (Chikungunya virus [12]): 7 µM

Structure (SMILES): O=c1cc(CSc2nc3ccccc3c(=O)[nH]2)c2ccc(OS(=O)(=O)c3ccc([N+](=O)[O-])cc3)cc2o1
- CC50 at 18 h [6]: 117 µM
- selectivity ratio [7]: 2.2
- EC50 (Chikungunya virus [8]): 54.5 µM

Structure (SMILES): CCCCCCCCCCCCCCCCCOC(=O)c1ccccc1C(=O)O
- selectivity ratio [13]: 4.66
- IC50 (Chikungunya virus [14]): 76.5 µM

Structure (SMILES): O=c1cc(CSc2nc3ccccc3c(=O)[nH]2)c2ccc(OCc3ccccc3)cc2o1
- EC50 (Chikungunya virus [8]): > 45.2 µM

Structure (SMILES): CC[C@H](C)[C@H]1O[C@]2(CC[C@@H]1C)C[C@@H]1C[C@@H](C/C=C(\C)[C@@H](O[C@H]3C[C@H](OC)[C@@H](O[C@H]4C[C@H](OC)[C@@H](O)[C@H](C)O4)[C@H](C)O3)[C@@H](C)/C=C/C=C3\CO[C@]4(O)[C@H](O)C(C)=C[C@@H](C(=O)O1)[C@]34O)O2
- EC50 (Chikungunya virus [15]): 0.6 µM
- EC50 (Chikungunya virus [16]): 1.9 µM
- CC50 [17]: 8 µM
- selectivity ratio [18]: 62.4
- CC50 [19]: 37.9 µM
- selectivity ratio [20]: 4.1

Structure (SMILES): O=c1cc(CSc2nc3ccccc3c(=O)[nH]2)c2ccc(OS(=O)(=O)c3ccccc3)cc2o1
- CC50 at 18 h [6]: 178 µM
- selectivity ratio [7]: 9.3
- EC50 (Chikungunya virus [8]): 19.1 µM

Structure (SMILES): CC1CCCCCCCC(C)C(=O)O[C@H]2/C(=C/Cl)C=C3[C@]45OC6(c7ccccc7)O[C@H]([C@@H]4[C@@H]4O[C@]4(CO)C[C@@]32O)[C@@](O)([C@@H](O6)[C@H]5C)C(C)(O)C1 (stereo partly drawn)
- CC50 [1]: 5.3 µM
- EC50 (Chikungunya virus [2]): 2.5 µM

Structure (SMILES): O=c1cc(-c2ccccc2)oc2cc(O)cc(O)c12 [CHRYSIN]
- IC50 (Chikungunya virus [21]): 22.5 to 127 µM

Structure (SMILES): Cc1cnc(SCc2cc(=O)oc3cc(OCc4ccc(F)cc4)ccc23)[nH]c1=O
- CC50 at 18 h [6]: 104 µM
- selectivity ratio [7]: 2.3
- EC50 (Chikungunya virus [8]): 45.1 µM

Structure (SMILES): O=c1ccnc(SCc2cc(=O)oc3cc(OCc4ccc([N+](=O)[O-])cc4)ccc23)[nH]1
- CC50 at 18 h [6]: 13.8 µM
- selectivity ratio [7]: 3
- EC50 (Chikungunya virus [8]): 4.6 µM

Structure (SMILES): Cc1ccc2nc(SCc3cc(=O)oc4cc(OS(=O)(=O)c5ccccc5)ccc34)[nH]c(=O)c2c1
- CC50 at 18 h [6]: 126 µM
- selectivity ratio [7]: 2.2
- EC50 (Chikungunya virus [8]): 58 µM
